Source: patent publication US5800838A, “Composition that inhibits or destroys at least one unicellular living organism containing fluorine F- and Lithium li+” (priority 1987, dated 1998)
Like-named read-outs stand apart in the source and are kept apart here.

Key:
[1] = test system: Gardnerella vaginalis; assay: Number of strains inhibited, bactericidal substance incorporated in culture medium (first trial); assay type: cell-based; settings: for MBC: Gardnerella vaginalis, 24 h, read-out: totally lethal concentration; for number of strains inhibited out of the 32 tested: NaF or LiF 1 mg/l where added
Protocol: (§1) In the first trial, the sample of bactericidal substance was incorporated directly in the specific culture edium of the microorganism. A concentration series of the bactericidal substance was prepared in the geometric ratio of 2, from 400 μg/ml to 1.56 μg/ml. The cell concentration used in the seeding of the Petri dishes was […]. A 24-hour incubation was performed at 37° C. and then, for each wild-type strain tested, the concentration of primary principle destroying all the microorganisms (see method of Professor F. CATALAN et al., Institut A. FOURNIER, PARIS) was determined. The trail was performed on 32 wild-type strains of Gardnerella vaginalis originating from hospital sources and with benzalkonium chloride and then nonoxinol 9 as active principles, and with sodium fluoride NaF at a concentration of 1 mg/l and then lithium fluoride LiF at a concentration of 1 mg/l as activating principles.

[2] = test system: Trichomonas vaginalis; assay: Number of strains inhibited / MIC, same methodology as example 4; assay type: cell-based; settings: for MIC: Trichomonas vaginalis
Protocol: as §1
The same methodology as in example 4 was used on 15 strains of Trichomonas vaginalis.

[3] = test system: Salmonella typhimurium; assay: MIC on wild-type hospital strains (Example 6); assay type: cell-based; settings: Salmonella enterica, 3 strains
Protocol: (§2) The MIC of benzalkonium chloride, alone and in the presence of LiF at a concentration of 1 mg/l, was determined with respect to other wild-type strains originating from hospital sources namely Streptococcus (6 strains). Staphylococcus aureus (8 strains). Salmonella typhimurium (3 strains) and Sarcina lutea (1 strain).

[4] = test system: Sarcina lutea; assay: MIC on wild-type hospital strains (Example 6); assay type: cell-based; settings: Micrococcus luteus, 1 strain
Protocol: as §2

[5] = test system: Staphylococcus aureus; assay: MIC on wild-type hospital strains (Example 6); assay type: cell-based; settings: in the presence of LiF at 1 mg/l, 8 strains
Protocol: as §2

[6] = test system: Streptococcus; assay: MIC on wild-type hospital strains (Example 6); assay type: cell-based; settings: 6 strains
Protocol: as §2

[7] = test system: DUCREY's bacillus; assay: MIC with respect to DUCREY's bacillus; assay type: cell-based, DUCREY's Haemophilus; settings: read-out: MIC of the primary active principle
Protocol: (§3) The methodology employed is that described by Professor F. CATALAN, P. SEDNAOUI, A. MILOVANOVIC et al., Institut A. FOURNIER, PARIS.
The trials were performed on 8 wild-type strains of DUCREY's Haemophilus. The following results were recorded with respect to these strains: […]

[8] = test system: Candida albicans; assay: MIC on hospital strains of Candida albicans; assay type: cell-based; settings: read-out: MIC of the primary active principle
Protocol: as §3
With the same methodology, trials were performed on hospital strains of Candida albicans: […]

[9] = test system: Aspergillus niger; assay: MIC on hospital strains of Aspergillus niger; assay type: cell-based; settings: read-out: MIC of the primary active principle
Excerpt: as §3
With the same methodology, the following results were observed on hospital strains of Aspergillus niger: […]

[10] = test system: Haemophilus influenzae; assay: MIC on hospital strains of pyogenic microorganisms; assay type: cell-based; settings: read-out: MIC of the primary active principle
Excerpt: as §3
(§4) With the same methodology, the following results were observed on hospital strains of pyogenic microorganisms, namely […] streptococcus, Proteus vulgaris, Haemophilus influenzae: […]

[11] = test system: Proteus vulgaris; assay: MIC on hospital strains of pyogenic microorganisms; assay type: cell-based; settings: read-out: MIC of the primary active principle
Excerpt: as §3, §4

[12] = test system: β-Haemolytic streptococcus; assay: MIC on hospital strains of pyogenic microorganisms; assay type: cell-based; settings: read-out: MIC of the primary active principle
Excerpt: as §3, §4

[13] = test system: Escherichia coli CNCM 54 127; settings: cited from earlier work
[14] = test system: Mycobacterium smegmatis CNCM 7 326; settings: cited from earlier work
[15] = in the presence of LiF at 1 mg/l
[16] = in the presence of LiF at 0.96 mg/l
[17] = in the presence of LiF at 1 mg/l and of KATHON CG preservative at 0.4 mg/l
[18] = in the presence of NaF at 1 mg/l

Structure (SMILES): CCCCCCCCCCCCCC[N+](C)(C)Cc1ccccc1.[Cl-] [benzalkonium chloride, myristyldimethylbenzylammonium chloride]
- MBC ([1]; alone): 50 µg/mL
- MBC ([1]; in the presence of LiF): 12.5 µg/mL
- MBC ([1]; in the presence of NaF): 25 µg/mL
- number of strains inhibited out of the 32 tested ([1]; primary active principle 1.56 mg/l): 0
- number of strains inhibited out of the 32 tested ([1]; primary active principle 3.125 mg/l): 0
- number of strains inhibited out of the 32 tested ([1]; primary active principle 6.25 mg/l): 1
- number of strains inhibited out of the 32 tested ([1]; primary active principle 12.5 mg/l): 28
- number of strains inhibited out of the 32 tested ([1]; primary active principle 25 mg/l): 31
- number of strains inhibited out of the 32 tested ([1]; primary active principle 50 mg/l): 32
- MIC ([2]; alone): 25 µg/mL
- MIC ([2]; in the presence of LiF): 6.25 µg/mL
- number of strains inhibited out of the 15 tested ([2]; benzalkonium chloride 1.56 mg/l, LiF 1 mg/l where added): 1
- number of strains inhibited out of the 15 tested ([2]; benzalkonium chloride 3.125 mg/l, LiF 1 mg/l where added): 3
- number of strains inhibited out of the 15 tested ([2]; benzalkonium chloride 6.25 mg/l, LiF 1 mg/l where added): 9
- number of strains inhibited out of the 15 tested ([2]; benzalkonium chloride 12.5 mg/l): 13
- number of strains inhibited out of the 15 tested ([2]; benzalkonium chloride 25 mg/l): 15
- MIC ([3]; alone): 17 µg/mL
- MIC [3, 15]: 12 µg/mL
- MIC ([4]; alone): 15 µg/mL
- MIC [4, 15]: 11 µg/mL
- MIC [5]: 0.3 µg/mL
- MIC ([6]; alone): 18 to 20 µg/mL
- MIC [6, 15]: 10 µg/mL
- MIC ([7]; in the presence of LiF (1 mg/l)): 65 µg/mL
- MIC ([7]; in the presence of NaF (1 mg/l)): 85 µg/mL
- MIC [7]: 100 µg/mL
- MIC ([8]; alone): 50 µg/mL
- MIC ([8]; in the presence of LiF at 0.96 mg/l and of KATHON CG preservative at 0.234/mgl): 2 µg/mL
- MIC [8, 16]: 135 µg/mL
- MIC ([9]; alone): 50 µg/mL
- MIC ([9]; in the presence of LiF at 0.96 mg/l and of KATHON CG preservative at 0.234 mg/l): 100 µg/mL
- MIC [9, 16]: 135 µg/mL
- MIC ([10]; alone): 200 µg/mL
- MIC [10, 17]: 150 µg/mL
- MIC ([11]; alone): 25 µg/mL
- MIC [11, 17]: 18.5 µg/mL
- MIC ([12]; alone): 50 µg/mL
- MIC [12, 17]: 25 µg/mL
- MIC of benzalkonium chloride ([13]; alone): 6.57 µg/mL
- MIC of benzalkonium chloride [13, 18]: 3 µg/mL
- MIC of benzalkonium chloride ([14]; alone): 30 µg/mL
- MIC of benzalkonium chloride [14, 18]: 26 µg/mL
